Measured values: US12251382B2, “Substituted amino-pyrimidine compound for use in a method for treatment and prevention of multiple sclerosis” (Merck Patent GmbH, priority 2018, dated 2025)

Assays:
[1] = Phase I Part 2 (multiple ascending dose study): safety and tolerability, TEAEs; assay type: in vivo, human
Description: The decision whether to initiate Part 2 of the study, as well as the MAD starting dose, was determined by the SMC based on review of safety data from Part 1, with PK and PD data also used to inform the decision. Dose-limiting criteria and termination/stopping rules were as per Part 1 of the study. […] Ultimately, dose levels of 25, 75, and 200 mg were selected.
Data were summarized using descriptive statistics.

[2] = tested on: B cells; conditions: in vitro and ex vivo; cited from earlier work
[3] = tested on: RA and SLE models; conditions: in vivo; cited from earlier work
[4] = Part 2, 25 mg once daily, 14 days
[5] = Part 2, 75 mg once daily, 14 days
[6] = Part 2, 200 mg once daily, 14 days
[7] = Part 2, pooled active, listed as evobrutinib

C=CC(=O)N1CCC(CNc2ncnc(N)c2-c2ccc(Oc3ccccc3)cc2)CC1 [Evobrutinib, 1-(4-(((6-amino-5-(4-phenoxyphenyl)pyrimidin-4-yl)amino)methyl)piperidin-1-yl)prop-2-en-1-one]
Relation of gastrointestinal or other TEAEs to dose ([1]; Part 2): No relation to dose was observed
Severity of TEAEs and dose-limiting adverse events ([1]; Part 2): mild and no dose-limiting adverse events were reported
Abdominal discomfort, number of TEAEs [1, 4]: 1
Abdominal discomfort, subjects [1, 4]: 1 (11.1) n (%)
Abdominal pain, subjects [1, 4]: 0 (0.0) n (%)
Application site irritation, subjects [1, 4]: 0 (0.0) n (%)
Complex regional pain, number of TEAEs [1, 4]: 1
Complex regional pain, subjects [1, 4]: 1 (11.1) n (%)
Constipation, subjects [1, 4]: 0 (0.0) n (%)
Dry throat, subjects [1, 4]: 0 (0.0) n (%)
Excoriation, number of TEAEs [1, 4]: 1
Excoriation, subjects [1, 4]: 1 (11.1) n (%)
Fatigue, subjects [1, 4]: 0 (0.0) n (%)
Headache, number of TEAEs [1, 4]: 1
Headache, subjects [1, 4]: 1 (11.1) n (%)
Muscle spasms, subjects [1, 4]: 0 (0.0) n (%)
Muscle strain, number of TEAEs [1, 4]: 1
Muscle strain, subjects [1, 4]: 1 (11.1) n (%)
Nausea, subjects [1, 4]: 0 (0.0) n (%)
Overall total TEAEs, subjects [1, 4]: 3 (33.3) n (%)
Overall total, number of TEAEs [1, 4]: 6
Rhinorrhea, number of TEAEs [1, 4]: 1
Rhinorrhea, subjects [1, 4]: 1 (11.1) n (%)
Sneezing, subjects [1, 4]: 0 (0.0) n (%)
Toothache, subjects [1, 4]: 0 (0.0) n (%)
Upper respiratory tract infection, subjects [1, 4]: 0 (0.0) n (%)
Abdominal discomfort, subjects [1, 5]: 0 (0.0) n (%)
Abdominal pain, number of TEAEs [1, 5]: 2
Abdominal pain, subjects [1, 5]: 1 (11.1) n (%)
Application site irritation, number of TEAEs [1, 5]: 1
Application site irritation, subjects [1, 5]: 1 (11.1) n (%)
Complex regional pain, subjects [1, 5]: 0 (0.0) n (%)
Constipation, number of TEAEs [1, 5]: 1
Constipation, subjects [1, 5]: 1 (11.1) n (%)
Dry throat, number of TEAEs [1, 5]: 1
Dry throat, subjects [1, 5]: 1 (11.1) n (%)
Excoriation, subjects [1, 5]: 0 (0.0) n (%)
Fatigue, number of TEAEs [1, 5]: 2
Fatigue, subjects [1, 5]: 2 (22.2) n (%)
Headache, number of TEAEs [1, 5]: 2
Headache, subjects [1, 5]: 2 (22.2) n (%)
Muscle spasms, number of TEAEs [1, 5]: 1
Muscle spasms, subjects [1, 5]: 1 (11.1) n (%)
Muscle strain, subjects [1, 5]: 0 (0.0) n (%)
Nausea, number of TEAEs [1, 5]: 2
Nausea, subjects [1, 5]: 1 (11.1) n (%)
Overall total TEAEs, subjects [1, 5]: 7 (77.8) n (%)
Overall total, number of TEAEs [1, 5]: 14
Rhinorrhea, subjects [1, 5]: 0 (0.0) n (%)
Sneezing, number of TEAEs [1, 5]: 1
Sneezing, subjects [1, 5]: 1 (11.1) n (%)
Toothache, subjects [1, 5]: 0 (0.0) n (%)
Upper respiratory tract infection, number of TEAEs [1, 5]: 1
Upper respiratory tract infection, subjects [1, 5]: 1 (11.1) n (%)
Abdominal discomfort, subjects [1, 6]: 0 (0.0) n (%)
Abdominal pain, subjects [1, 6]: 0 (0.0) n (%)
Application site irritation, number of TEAEs [1, 6]: 1
Application site irritation, subjects [1, 6]: 1 (11.1) n (%)
Complex regional pain, subjects [1, 6]: 0 (0.0) n (%)
Constipation, subjects [1, 6]: 0 (0.0) n (%)
Dry throat, subjects [1, 6]: 0 (0.0) n (%)
Excoriation, subjects [1, 6]: 0 (0.0) n (%)
Fatigue, subjects [1, 6]: 0 (0.0) n (%)
Headache, subjects [1, 6]: 0 (0.0) n (%)
Muscle spasms, subjects [1, 6]: 0 (0.0) n (%)
Muscle strain, subjects [1, 6]: 0 (0.0) n (%)
Nausea, subjects [1, 6]: 0 (0.0) n (%)
Overall total TEAEs, subjects [1, 6]: 3 (33.3) n (%)
Overall total, number of TEAEs [1, 6]: 3
Rhinorrhea, subjects [1, 6]: 0 (0.0) n (%)
Sneezing, subjects [1, 6]: 0 (0.0) n (%)
Toothache, number of TEAEs [1, 6]: 1
Toothache, subjects [1, 6]: 1 (11.1) n (%)
Upper respiratory tract infection, number of TEAEs [1, 6]: 1
Upper respiratory tract infection, subjects [1, 6]: 1 (11.1) n (%)
Number of gastrointestinal TEAEs ([1]; Part 2, all evobrutinib doses): Seven
Subjects with fatigue ([1]; Part 2, all evobrutinib doses): 7.4%
Subjects with gastrointestinal TEAEs ([1]; Part 2, all evobrutinib doses): 18.5%
Subjects with headache ([1]; Part 2, all evobrutinib doses): 11.1%
Subjects with skin irritation due to ECG pads ([1]; Part 2, all evobrutinib doses): 7.4%
Subjects with upper respiratory tract infection ([1]; Part 2, all evobrutinib doses): 7.4%
Subjects with TEAEs ([1]; Part 2, multiple dosing, all evobrutinib doses): 48.1%
Abdominal discomfort, number of TEAEs ([1]; Part 2, pooled active): 1
Abdominal discomfort, subjects ([1]; Part 2, pooled active): 1 (3.7) n (%)
Abdominal pain, number of TEAEs ([1]; Part 2, pooled active): 2
Abdominal pain, subjects ([1]; Part 2, pooled active): 1 (3.7) n (%)
Application site irritation, number of TEAEs ([1]; Part 2, pooled active): 2
Application site irritation, subjects ([1]; Part 2, pooled active): 2 (7.4) n (%)
Complex regional pain, number of TEAEs ([1]; Part 2, pooled active): 1
Complex regional pain, subjects ([1]; Part 2, pooled active): 1 (3.7) n (%)
Constipation, number of TEAEs ([1]; Part 2, pooled active): 1
Constipation, subjects ([1]; Part 2, pooled active): 1 (3.7) n (%)
Dry throat, number of TEAEs ([1]; Part 2, pooled active): 1
Dry throat, subjects ([1]; Part 2, pooled active): 1 (3.7) n (%)
Excoriation, number of TEAEs ([1]; Part 2, pooled active): 1
Excoriation, subjects ([1]; Part 2, pooled active): 1 (3.7) n (%)
Fatigue, number of TEAEs ([1]; Part 2, pooled active): 2
Fatigue, subjects ([1]; Part 2, pooled active): 2 (7.4) n (%)
Headache, number of TEAEs ([1]; Part 2, pooled active): 3
Headache, subjects ([1]; Part 2, pooled active): 3 (11.1) n (%)
Muscle spasms, number of TEAEs ([1]; Part 2, pooled active): 1
Muscle spasms, subjects ([1]; Part 2, pooled active): 1 (3.7) n (%)
Muscle strain, number of TEAEs ([1]; Part 2, pooled active): 1
Muscle strain, subjects ([1]; Part 2, pooled active): 1 (3.7) n (%)
Nausea, number of TEAEs ([1]; Part 2, pooled active): 2
Nausea, subjects ([1]; Part 2, pooled active): 1 (3.7) n (%)
Overall total TEAEs, subjects ([1]; Part 2, pooled active): 13 (48.1) n (%)
Overall total, number of TEAEs ([1]; Part 2, pooled active): 23
Rhinorrhea, number of TEAEs ([1]; Part 2, pooled active): 1
Rhinorrhea, subjects ([1]; Part 2, pooled active): 1 (3.7) n (%)
Sneezing, number of TEAEs ([1]; Part 2, pooled active): 1
Sneezing, subjects ([1]; Part 2, pooled active): 1 (3.7) n (%)
Toothache, number of TEAEs ([1]; Part 2, pooled active): 1
Toothache, subjects ([1]; Part 2, pooled active): 1 (3.7) n (%)
Upper respiratory tract infection, number of TEAEs ([1]; Part 2, pooled active): 2
Upper respiratory tract infection, subjects ([1]; Part 2, pooled active): 2 (7.4) n (%)
Application site irritation, number of TEAEs [1, 7]: two
Fatigue, number of TEAEs [1, 7]: two
Headache, number of TEAEs [1, 7]: three
Upper respiratory tract infection, number of TEAEs [1, 7]: two
B-cell activation and maturation [2]: inhibits B-cell activation and maturation from naïve to antigen-activated B cells
Activity in RA and SLE models [3]: robust activity
